From patent US12239632B2, “Asymmetric allyl tryptamines” (Alexander Shulgin Research Institute, Inc., priority 2021, dated 2025)
pEC50, pIC50: −log10 of the molar value. Counter-ions that a name gives are not always drawn.

What was measured:
HTR6 = target: T1, HTR6 (Homo sapiens, UniProt P50406); assay: PathHunter beta-Arrestin assay, HTR6 agonist mode; type: cell-based
T1 construct: expressed in transfected cells
Description: The assay monitors restoration of ß-galactosidase (β-Gal) as a marker of GPCR activation and recruitment of β-Arrestin to the receptor.
3.5 μL of concentrated sample was added to cells and incubated at 37° C. or room temperature for 90 to 180 minutes. Vehicle concentration was 1%.
Assay signal was generated through a single addition of 50% v/v of PathHunter Detection reagent cocktail, followed by a one hour incubation at room temperature. Microplates were read following signal generation with a plate reader set to detect chemiluminescent signals. Compound activity was analyzed using CBIS data analysis suite (ChemInnovation, CA).

HTR2B [1] = target: T2, HTR2B (Homo sapiens, UniProt P41595); assay: Calcium mobilization assay, HTR2B antagonist mode; type: cell-based
T2 construct: expressed in transfected cells
Description: Activation of the GPCR results in the release of calcium from intracellular stores and an increase in dye fluorescence that can be measured.
Cell lines were expanded from freezer stocks and seeded into multi-well microplates. Then, the plates were incubated at 37° C. for an appropriate amount of time and loaded with Dye Loading buffer. To determine compound agonist activity, cells were incubated with the sample to induce a response, and HBSS/20 mM Hepes was added using a FLIPR Tetra (MDS). Activity was measured on a FLIPR Tetra. Calcium mobilization was monitored for 2 minutes.
To determine compound antagonist activity, cells were pre-incubated with the sample followed by an post-incubation administration of the compound with 3×EC80 agonist using FLIPR. Compound antagonist activity was measured on a FLIPR Tetra (MDS) and calcium mobilization was monitored for 2 minutes.
For antagonist mode assays, percentage inhibition was calculated using the following formula: % Inhibition=100%×(1−(mean RFU of test sample−mean RFU of vehicle control)/(mean RFU of EC80 control−mean RFU of vehicle control)).

HTR2B [2] = target: T2, HTR2B; assay: Calcium mobilization assay, HTR2B agonist mode; type: cell-based
Description: (§1) Compound activity was analyzed using CBIS data analysis suite (ChemInnovation, CA). For agonist mode assays, percentage activity was calculated using the following formula: % Activity=100%×(mean RFU of test sample−mean RFU of vehicle control)/(mean MAX RFU control ligand −mean RFU of vehicle control).

HTR1B = target: T3, HTR1B (Homo sapiens, UniProt P28222); assay: In vitro functional activity, HTR1B agonist mode; type: cell-based
T3 construct: expressed in transfected cells
Description: (§2) Such activity was determined to assess potential neuromodulatory activity and safety liabilities.

HTR2A [3] = target: T4, HTR2A (Homo sapiens, UniProt P28223); assay: Calcium mobilization assay, HTR2A agonist mode; type: cell-based; settings: for agonist activity at HTR2A: agonist mode
T4 construct: expressed in transfected cells
Description: as §1

DRD2S = target: T5, DRD2S (Homo sapiens, UniProt P14416); assay: HitHunter cAMP assay, DRD2S agonist mode; type: cell-based
T5 construct: expressed in transfected cells
Description: (§3) The assay monitors the activation of a GPCR via Gi and Gs secondary messenger signaling, using ß-Gal as a functional reporter. […] To determine Gi/Gs agonism, media was aspirated from cells and replaced with 15 μL 2:1 HBSS/10 mM HEPES:cAMP XS+Ab reagent. Concentrated (4×) test compound in assay buffer was added to cells and incubated at 37° C. or room temperature for 30 or 60 minutes. For Gi agonist activation, cells were incubated with EC80 forskolin in addition to a test compound. Vehicle concentration was 1%.
Compound activity was analyzed using CBIS data analysis suite (ChemInnovation, CA). For Gs agonist mode assays, percentage activity was calculated using the following formula: % Activity=100%×(mean RLU of test sample−mean RLU of vehicle control)/(mean RLU of MAX control−mean RLU of vehicle control).
For Gi agonist mode assays, percentage activity was calculated using the following formula: % Activity=100%×(1−(mean RLU of test sample−mean RLU of MAX control)/(mean RLU of vehicle control−mean RLU of MAX control)).

ADRA2A = target: T6, ADRA2A (Homo sapiens, UniProt P08913); assay: In vitro functional activity, ADRA2A antagonist mode; type: cell-based
T6 construct: expressed in transfected cells
T6 sequence (P08913 1-465): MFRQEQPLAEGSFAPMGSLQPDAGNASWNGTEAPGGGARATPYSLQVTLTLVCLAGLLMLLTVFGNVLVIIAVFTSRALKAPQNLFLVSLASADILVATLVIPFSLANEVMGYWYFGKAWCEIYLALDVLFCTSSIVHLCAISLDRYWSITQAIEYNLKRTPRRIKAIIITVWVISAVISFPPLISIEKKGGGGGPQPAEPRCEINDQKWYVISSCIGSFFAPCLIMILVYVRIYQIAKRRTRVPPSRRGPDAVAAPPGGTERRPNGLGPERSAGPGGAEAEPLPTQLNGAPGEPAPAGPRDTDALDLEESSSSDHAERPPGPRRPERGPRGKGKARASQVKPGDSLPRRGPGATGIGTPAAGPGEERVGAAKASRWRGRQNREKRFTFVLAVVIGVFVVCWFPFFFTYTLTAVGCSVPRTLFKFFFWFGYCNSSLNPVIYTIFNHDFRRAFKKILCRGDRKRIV
Description: as §3

NET = target: T7, NET (Homo sapiens, UniProt P23975); assay: Neurotransmitter transporter uptake assay, NET blocker mode; type: cell-based
T7 construct: expressed in transfected cells
Description: (§4) Methods—Monoamine Transporter Assay: Neurotransmitter uptake via transporters was measured using the Neurotransmitter Transporter Uptake Assay Kit from Molecular Devices. […] Increased intracellular fluorescence intensity following uptake of biogenic amine neurotransmitters via transporters is measured and can be run in a kinetic or endpoint mode.
(§5) Compound was added and the mixture was incubated. Following compound incubation, dye was added to the wells and the plate was re-incubated. Microplates were then transferred to a PerkinElmer Envision™ instrument for fluorescence signal detection.
(§6) Compound activity was analyzed using CBIS data analysis (ChemInnovation, CA). For blocker mode assays, percentage inhibition was calculated using the following formula: % Inhibition=100%×(1−(mean RLU of test sample−mean RLU of vehicle control)/(mean RLU of positive control−mean RLU of vehicle control)).

CAV1.2 = target: T8, CAV1.2 (Homo sapiens, UniProt Q13936); assay: FLIPR membrane potential ion channel assay, CAV1.2 blocker; type: cell-based
T8 construct: expressed in transfected cells
Description: (§7) Methods—Ion Channel Assay: Membrane potential changes were measured using the FLIPR® Membrane potential Assay Kit. A fluorescent indicator dye in combination with a quencher was used to reflect real-time membrane potential changes associated with ion channel activation and ion transporter proteins. Calcium channel CAV1.2, potassium channel hERG, and sodium channel NAV1.5 were tested.
(§8) To determine agonist and antagonist activity, cell lines were expanded from freezer stocks, seeded into multi-well microplates, and incubated at 37° C. Cells were then loaded with dye and incubated again.
(§9) For agonist determination, cells were incubated with the sample a different dilutions to induce a response. For antagonist determination, cells were pre-incubated with the sample at different dilutions. Following dye administration, the sample was added to the cells in the presence of EC80 agonist and then re-incubated at room temperature in the dark.
(§10) For antagonist mode assays, percentage inhibition was calculated using the following formula: % Inhibition=100%×(1−(mean RLU of test sample−mean RLU of vehicle control)/(mean RLU of EC80 control−mean RLU of vehicle control)).

NAV1.5 = target: T9, NAV1.5 (Homo sapiens, UniProt Q14524); assay: FLIPR membrane potential ion channel assay, NAV1.5 blocker; type: cell-based
T9 construct: expressed in transfected cells
Description: as §7, §8, §9, §10

HTR1A = target: T10, HTR1A (Homo sapiens, UniProt P08908); assay: In vitro functional activity, HTR1A agonist mode; type: cell-based
T10 construct: expressed in transfected cells
T10 sequence (P08908 1-422): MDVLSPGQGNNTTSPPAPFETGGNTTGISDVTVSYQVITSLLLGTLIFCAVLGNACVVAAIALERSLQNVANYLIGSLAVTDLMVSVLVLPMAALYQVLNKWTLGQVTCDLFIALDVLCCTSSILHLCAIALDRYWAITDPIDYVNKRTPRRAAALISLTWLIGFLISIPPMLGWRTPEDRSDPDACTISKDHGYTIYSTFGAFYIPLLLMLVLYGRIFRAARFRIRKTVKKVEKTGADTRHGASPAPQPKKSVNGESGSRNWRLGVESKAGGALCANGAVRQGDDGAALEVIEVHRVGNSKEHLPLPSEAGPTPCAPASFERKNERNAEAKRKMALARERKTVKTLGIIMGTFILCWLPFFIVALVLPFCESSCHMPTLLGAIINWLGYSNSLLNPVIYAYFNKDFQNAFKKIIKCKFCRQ
Description: as §2

ADRA1A = target: T11, ADRA1A (Homo sapiens, UniProt P35348); assay: In vitro functional activity, ADRA1A antagonist mode; type: cell-based
T11 construct: expressed in transfected cells
T11 sequence (P35348 1-466): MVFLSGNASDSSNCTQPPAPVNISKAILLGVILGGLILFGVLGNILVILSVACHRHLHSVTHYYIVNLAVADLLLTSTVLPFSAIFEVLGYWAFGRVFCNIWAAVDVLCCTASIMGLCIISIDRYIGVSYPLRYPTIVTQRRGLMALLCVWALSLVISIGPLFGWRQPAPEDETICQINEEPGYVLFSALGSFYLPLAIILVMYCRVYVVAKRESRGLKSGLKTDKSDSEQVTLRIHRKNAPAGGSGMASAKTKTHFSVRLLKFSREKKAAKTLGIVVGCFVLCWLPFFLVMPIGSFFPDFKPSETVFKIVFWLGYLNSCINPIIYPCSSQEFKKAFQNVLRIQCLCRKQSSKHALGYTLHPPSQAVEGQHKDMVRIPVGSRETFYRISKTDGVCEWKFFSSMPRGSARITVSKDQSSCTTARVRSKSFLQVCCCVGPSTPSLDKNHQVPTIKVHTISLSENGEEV
Description: as §3

MAOA = target: T12, MAOA (Homo sapiens, UniProt P21397); assay: MAO-A enzyme assay (kynuramine substrate); type: biochemical
T12 construct: purchased Sigma
T12 sequence (P21397 1-527): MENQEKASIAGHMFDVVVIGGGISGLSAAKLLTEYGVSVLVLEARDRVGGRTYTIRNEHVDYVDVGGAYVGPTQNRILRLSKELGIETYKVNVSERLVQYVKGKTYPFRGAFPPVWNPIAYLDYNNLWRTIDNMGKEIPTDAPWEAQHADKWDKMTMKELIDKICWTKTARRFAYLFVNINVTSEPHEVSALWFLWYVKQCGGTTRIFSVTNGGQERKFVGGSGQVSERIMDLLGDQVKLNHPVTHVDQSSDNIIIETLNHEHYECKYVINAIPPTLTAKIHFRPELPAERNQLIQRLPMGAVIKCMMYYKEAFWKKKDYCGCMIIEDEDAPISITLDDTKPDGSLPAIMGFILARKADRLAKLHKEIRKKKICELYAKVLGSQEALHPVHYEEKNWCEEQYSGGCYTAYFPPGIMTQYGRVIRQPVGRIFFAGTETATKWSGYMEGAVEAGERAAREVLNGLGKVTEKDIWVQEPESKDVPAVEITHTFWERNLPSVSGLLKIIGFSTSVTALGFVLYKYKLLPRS
Description: Methods—Enzyme Assays: Enzymatic activity was determined by measuring either the consumption of substrate or production of product over time. For MAO-A (Sigma), enzyme and test compound were preincubated for 15 minutes at 37° C. before substrate addition. The reaction was initiated by addition of kynuramine and incubated at 37° ° C. for 30 minutes. The reaction was terminated by addition of NaOH. The amount of 4-hydroxyquinoline formed was determined through spectrofluorimetric readout with the emission detection at 380 nm and excitation wavelength 310 nm.

HRH1 = target: T13, HRH1 (Homo sapiens, UniProt P35367); assay: cell-based; type: cell-based; settings: antagonist mode; for pIC50: read-out: EC50/IC50, HRH1 (Antagonist)
T13 construct: expressed in transfected cells
Description: as §2

DAT = target: T14, DAT (Homo sapiens, UniProt Q01959); assay: Neurotransmitter transporter uptake assay, DAT blocker mode; type: cell-based
T14 construct: expressed in transfected cells
Description: as §4, §5, §6

SERT = target: T15, SERT (Homo sapiens, UniProt P31645); assay: cell-based; settings: blocker mode; read-out: EC50/IC50, SERT (Blocker)
T15 construct: expressed in transfected cells
Description: as §4, §5, §6

hERG = target: T16, hERG (Homo sapiens, UniProt Q12809); assay: FLIPR membrane potential ion channel assay, hERG blocker; type: cell-based
T16 construct: expressed in transfected cells
Description: as §7, §8, §9, §10

HTR2A [4] = target: T4, HTR2A; assay: Calcium mobilization assay, HTR2A antagonist mode; type: cell-based
Description: Cell lines were expanded from freezer stocks and seeded into multi-well microplates. Then, the plates were incubated at 37° C. for an appropriate amount of time and loaded with Dye Loading buffer. […] Activity was measured on a FLIPR Tetra. Calcium mobilization was monitored for 2 minutes.

T3 sequence (P28222 whole entry): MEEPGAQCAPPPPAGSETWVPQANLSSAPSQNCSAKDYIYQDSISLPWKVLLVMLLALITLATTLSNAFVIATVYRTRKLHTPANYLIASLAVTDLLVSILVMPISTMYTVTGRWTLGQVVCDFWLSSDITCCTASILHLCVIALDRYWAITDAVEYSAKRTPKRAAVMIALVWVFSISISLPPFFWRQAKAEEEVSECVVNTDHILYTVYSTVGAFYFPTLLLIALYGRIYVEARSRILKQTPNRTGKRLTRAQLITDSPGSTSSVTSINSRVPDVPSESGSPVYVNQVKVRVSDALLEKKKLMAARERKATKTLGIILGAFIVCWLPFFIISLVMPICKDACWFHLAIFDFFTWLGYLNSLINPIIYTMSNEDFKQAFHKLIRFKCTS
T4 sequence (P28223 whole entry): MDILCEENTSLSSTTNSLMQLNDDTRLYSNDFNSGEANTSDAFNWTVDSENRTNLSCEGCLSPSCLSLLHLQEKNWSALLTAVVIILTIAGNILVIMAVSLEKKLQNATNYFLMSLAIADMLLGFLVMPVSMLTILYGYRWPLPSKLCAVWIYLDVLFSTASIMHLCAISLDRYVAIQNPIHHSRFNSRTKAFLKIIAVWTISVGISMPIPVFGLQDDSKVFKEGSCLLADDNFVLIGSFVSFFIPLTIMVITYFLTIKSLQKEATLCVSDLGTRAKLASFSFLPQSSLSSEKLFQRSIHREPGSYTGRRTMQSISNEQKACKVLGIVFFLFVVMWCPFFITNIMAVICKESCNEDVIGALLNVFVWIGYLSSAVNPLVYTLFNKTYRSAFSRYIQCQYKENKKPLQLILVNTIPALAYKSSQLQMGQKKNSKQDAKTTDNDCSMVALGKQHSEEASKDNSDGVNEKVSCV
T16 sequence (Q12809 whole entry): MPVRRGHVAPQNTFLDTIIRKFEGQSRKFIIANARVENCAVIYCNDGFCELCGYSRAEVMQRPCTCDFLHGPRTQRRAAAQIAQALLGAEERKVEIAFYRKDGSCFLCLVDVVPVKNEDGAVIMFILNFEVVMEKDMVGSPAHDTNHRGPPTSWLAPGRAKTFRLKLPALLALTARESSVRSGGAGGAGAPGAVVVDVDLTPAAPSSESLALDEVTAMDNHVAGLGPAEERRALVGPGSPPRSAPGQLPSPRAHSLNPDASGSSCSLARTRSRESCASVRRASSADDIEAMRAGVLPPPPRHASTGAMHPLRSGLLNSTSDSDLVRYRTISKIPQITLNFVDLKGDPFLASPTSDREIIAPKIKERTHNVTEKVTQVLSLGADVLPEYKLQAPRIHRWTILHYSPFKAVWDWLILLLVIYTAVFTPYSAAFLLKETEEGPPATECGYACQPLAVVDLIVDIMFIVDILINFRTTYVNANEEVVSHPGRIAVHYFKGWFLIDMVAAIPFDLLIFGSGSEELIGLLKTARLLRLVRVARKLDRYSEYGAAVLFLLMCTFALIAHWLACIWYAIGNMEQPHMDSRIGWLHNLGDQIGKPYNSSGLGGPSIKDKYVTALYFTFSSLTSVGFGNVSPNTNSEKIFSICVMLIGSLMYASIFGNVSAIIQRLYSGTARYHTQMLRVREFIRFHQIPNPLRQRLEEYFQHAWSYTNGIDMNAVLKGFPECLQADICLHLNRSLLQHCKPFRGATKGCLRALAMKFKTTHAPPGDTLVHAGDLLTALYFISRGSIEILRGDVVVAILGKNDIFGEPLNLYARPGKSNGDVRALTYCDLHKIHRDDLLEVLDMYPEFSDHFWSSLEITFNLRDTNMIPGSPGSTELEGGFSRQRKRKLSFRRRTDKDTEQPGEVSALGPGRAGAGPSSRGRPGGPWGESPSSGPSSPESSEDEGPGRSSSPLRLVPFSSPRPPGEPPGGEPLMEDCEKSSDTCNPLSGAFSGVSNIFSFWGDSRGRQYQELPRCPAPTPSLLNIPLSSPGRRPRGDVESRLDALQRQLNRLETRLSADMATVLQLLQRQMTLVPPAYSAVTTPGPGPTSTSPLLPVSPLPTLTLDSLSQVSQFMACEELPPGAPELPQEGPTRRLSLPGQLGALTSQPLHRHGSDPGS
T14 sequence (Q01959 whole entry): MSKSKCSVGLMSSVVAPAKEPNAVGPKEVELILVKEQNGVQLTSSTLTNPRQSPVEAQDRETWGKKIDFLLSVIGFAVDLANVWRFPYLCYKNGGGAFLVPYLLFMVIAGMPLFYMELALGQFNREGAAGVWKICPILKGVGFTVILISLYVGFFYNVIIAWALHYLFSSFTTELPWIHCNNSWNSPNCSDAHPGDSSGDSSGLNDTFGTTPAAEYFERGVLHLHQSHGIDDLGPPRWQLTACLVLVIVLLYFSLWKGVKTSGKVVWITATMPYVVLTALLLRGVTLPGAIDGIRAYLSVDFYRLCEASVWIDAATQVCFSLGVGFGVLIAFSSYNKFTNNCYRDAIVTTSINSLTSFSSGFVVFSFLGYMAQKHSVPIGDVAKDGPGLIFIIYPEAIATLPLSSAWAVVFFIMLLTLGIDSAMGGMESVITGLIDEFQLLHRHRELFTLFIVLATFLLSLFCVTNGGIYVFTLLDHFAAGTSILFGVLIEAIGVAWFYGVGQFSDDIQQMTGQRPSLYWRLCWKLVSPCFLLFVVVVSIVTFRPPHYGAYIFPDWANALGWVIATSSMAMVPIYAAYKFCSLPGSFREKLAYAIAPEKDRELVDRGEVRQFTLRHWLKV
T9 sequence (Q14524 whole entry): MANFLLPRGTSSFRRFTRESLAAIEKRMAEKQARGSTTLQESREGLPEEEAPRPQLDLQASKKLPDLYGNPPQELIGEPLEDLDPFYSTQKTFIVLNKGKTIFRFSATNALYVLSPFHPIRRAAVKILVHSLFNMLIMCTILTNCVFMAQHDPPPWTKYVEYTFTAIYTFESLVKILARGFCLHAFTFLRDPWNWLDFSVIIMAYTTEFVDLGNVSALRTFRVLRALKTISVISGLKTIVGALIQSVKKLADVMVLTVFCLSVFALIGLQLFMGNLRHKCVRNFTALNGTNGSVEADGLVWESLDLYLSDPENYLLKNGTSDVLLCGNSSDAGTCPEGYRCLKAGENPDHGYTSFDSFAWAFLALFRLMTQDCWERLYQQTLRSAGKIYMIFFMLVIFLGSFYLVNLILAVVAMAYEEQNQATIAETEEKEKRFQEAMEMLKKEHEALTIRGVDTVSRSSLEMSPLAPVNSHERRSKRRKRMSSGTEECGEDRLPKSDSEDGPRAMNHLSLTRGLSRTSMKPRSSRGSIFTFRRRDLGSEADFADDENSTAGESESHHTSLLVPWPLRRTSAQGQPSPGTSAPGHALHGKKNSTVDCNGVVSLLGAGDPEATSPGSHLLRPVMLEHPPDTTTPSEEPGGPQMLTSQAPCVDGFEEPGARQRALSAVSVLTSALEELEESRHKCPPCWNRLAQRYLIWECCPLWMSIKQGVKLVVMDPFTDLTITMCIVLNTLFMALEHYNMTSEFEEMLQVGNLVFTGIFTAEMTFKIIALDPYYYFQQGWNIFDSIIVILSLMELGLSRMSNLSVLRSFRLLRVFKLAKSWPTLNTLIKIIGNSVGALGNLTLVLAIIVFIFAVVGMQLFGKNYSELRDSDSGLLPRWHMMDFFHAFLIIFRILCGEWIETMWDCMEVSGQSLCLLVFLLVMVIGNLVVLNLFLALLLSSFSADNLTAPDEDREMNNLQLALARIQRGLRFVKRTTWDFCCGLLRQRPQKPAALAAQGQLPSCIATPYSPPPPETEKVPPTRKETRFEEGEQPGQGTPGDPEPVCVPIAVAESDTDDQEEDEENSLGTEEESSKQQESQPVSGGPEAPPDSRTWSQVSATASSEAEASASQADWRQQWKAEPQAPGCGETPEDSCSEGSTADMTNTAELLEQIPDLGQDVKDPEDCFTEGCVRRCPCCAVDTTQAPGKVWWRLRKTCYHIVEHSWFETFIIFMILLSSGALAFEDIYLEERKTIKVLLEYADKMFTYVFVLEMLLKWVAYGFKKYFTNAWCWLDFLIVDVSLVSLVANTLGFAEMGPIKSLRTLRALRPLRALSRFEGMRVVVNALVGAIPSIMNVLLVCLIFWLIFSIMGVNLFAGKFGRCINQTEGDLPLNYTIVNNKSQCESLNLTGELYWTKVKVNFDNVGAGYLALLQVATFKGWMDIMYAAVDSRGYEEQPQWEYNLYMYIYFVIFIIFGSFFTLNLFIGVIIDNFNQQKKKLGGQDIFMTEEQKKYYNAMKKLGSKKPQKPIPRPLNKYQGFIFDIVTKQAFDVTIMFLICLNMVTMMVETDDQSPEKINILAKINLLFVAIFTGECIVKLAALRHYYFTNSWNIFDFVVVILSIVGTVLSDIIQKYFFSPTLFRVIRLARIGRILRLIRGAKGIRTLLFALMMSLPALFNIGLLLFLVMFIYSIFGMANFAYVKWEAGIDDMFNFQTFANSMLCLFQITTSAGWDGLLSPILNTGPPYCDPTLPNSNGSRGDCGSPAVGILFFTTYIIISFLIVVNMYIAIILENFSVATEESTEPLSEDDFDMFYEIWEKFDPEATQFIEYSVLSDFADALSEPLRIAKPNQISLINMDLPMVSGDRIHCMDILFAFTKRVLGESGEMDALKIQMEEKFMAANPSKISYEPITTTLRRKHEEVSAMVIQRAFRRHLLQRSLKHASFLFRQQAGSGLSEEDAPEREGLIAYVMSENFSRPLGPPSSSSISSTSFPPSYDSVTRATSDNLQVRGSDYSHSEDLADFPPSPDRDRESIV
T5 sequence (P14416 1-414 isoform P14416-2): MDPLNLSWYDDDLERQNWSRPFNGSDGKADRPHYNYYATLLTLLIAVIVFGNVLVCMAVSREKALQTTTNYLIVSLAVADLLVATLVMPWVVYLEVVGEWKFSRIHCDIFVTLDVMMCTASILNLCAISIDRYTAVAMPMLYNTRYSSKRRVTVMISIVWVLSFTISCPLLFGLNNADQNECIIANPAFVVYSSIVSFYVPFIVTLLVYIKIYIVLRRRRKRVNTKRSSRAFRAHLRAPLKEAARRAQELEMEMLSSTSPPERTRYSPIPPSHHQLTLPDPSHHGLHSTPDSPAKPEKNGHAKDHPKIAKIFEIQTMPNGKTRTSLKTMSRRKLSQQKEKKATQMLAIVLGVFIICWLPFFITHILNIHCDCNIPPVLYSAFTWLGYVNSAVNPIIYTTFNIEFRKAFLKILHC

SMILES	pEC50 (HTR6)	pIC50 (HTR2B [1])	pEC50 (HTR2B [2])	pEC50 (HTR1B)	pEC50 (HTR2A [3])	agonist activity at HTR2A (HTR2A [3])	pEC50 (DRD2S)	agonistic activity for dopamine receptor D2 short isoform (DRD2S; agonist mode)	pIC50 (ADRA2A)	pIC50 (NET)	pIC50 (CAV1.2)	pIC50 (NAV1.5)	pEC50 (HTR1A)	pIC50 (ADRA1A)	pIC50 (MAOA)	pIC50 (HRH1)	pIC50 (DAT)	pIC50 (SERT)	pIC50 (hERG)	pIC50 (HTR2A [4])	further results
C=CCN(CCc1c(C)[nH]c2ccccc12)C(C)C [ASR-3002, N-isopropyl-N-(2-(2-methyl-1H-indol-3-yl)ethyl)prop-2-en-1-amine hydrochloride]	5.77	6.30	5.89	5.31	5.59	potent agonist activity	5.35	agonistic activity	6.42	< 5.00	< 5.00	< 5.00	< 5.00	5.07	< 5.00	< 5.00	< 5.00	< 5.00	< 5.00	5.38	–
C=CCN(CCc1c[nH]c2ccc(OC)cc12)C(C)C [ASR-3001, N-isopropyl-N-(2-(5-methoxy-1H-indol-3-yl)ethyl)prop-2-en-1-amine hydrochloride]	6.38	7.29	7.06	7.33	8.01	potent agonist activity	< 5.00	–	< 5.00	< 5.00	< 5.00	< 5.00	6.19	< 5.00	< 5.00	< 5.00	< 5.00	5.16	< 5.00	7.19	–
C=CCN(CCc1c[nH]c2ccccc12)C(C)C [ASR-3003, N-(2-(1H-indol-3-yl)ethyl)-N-isopropylprop-2-en-1-amine hydrochloride]	5.37	6.29	5.60	6.09	6.34	potent agonist activity	6.74	agonistic activity	5.43	< 5.00	< 5.00	< 5.00	< 5.00	< 5.00	< 5.00	5.20	< 5.00	5.63	< 5.00	5.85	potency for DRD2S (DRD2S; agonist mode): nanomolar level; antagonistic effects at histamine receptor H1 (HRH1): antagonistic effects
